Data set [1] can be described thus: pH and clarity of 5.55 mg/mL sodium oleate solution. In kind it is physicochemical. Particulars: sodium oleate 5.55 mg/mL solution. As for the experimental part: After the initial pH measurement discussed above, the compositions of this embodiment have a pH value of at least 7.5. In some embodiments the PH is in the range of between 7.5-10.5 or between 8.5-10.8. This pH value is observed a short period, e.g. a few days, after formation of the emulsion, and is to be contrasted with the initial pH value which is measured substantially immediately after the formation of the emulsion. Preferably, the fatty acid content of the oleate is high, e.g. at least about 80% and the alkalinity of oleate when tested as an aqueous solution is also relatively high, e.g. at least about pH of 10.3 of 0.55% W/V solution in water.

Data set [2] is described as follows: Emulsion formation of Form-81 with sodium oleate from different sources. Format: physicochemical. Particulars: Form-81 with sodium benzoate, after mixing oil and water phases and stirring. The method, then: The solution was heated to about 55-68° C., while stirring aprepitant was added and continued stirring until all of the drug is dissolved. After cooling to room temperature, Sodium oleate was added to mixture and stirred to get uniform dispersion. Ethanol quantity adjusted by adding ethanol to mixture to compensate loss. Weight of container was recorded at each stage.
Oil phase slowly added to water phase slowly while water phase stirred at 1000 RPM using overhead stirrer.
Coarse emulsion was milled using microfluidizer (Microfluidizer LM-25/30), […].

The conditions of data set [3]: after oral administration; cited from earlier work.

Each structure is given as a SMILES string.

For `CCCCCCCC/C=C\CCCCCCCC(=O)[O-].[Na+]` [Sodium Oleate from Lipoid, Germany, Sodium Oleate], in data set [1], the Clarity result is given as “Hazy solution” and the “pH of 5.55 mg/mL solution” value turned out to be 10.36. Besides, the Emulsion formation result in data set [2] is on record as “slightly viscous emulsions”.
Turning to `CCCCCCCC/C=C\CCCCCCCC(=O)[O-].[Na+]` [Sodium Oleate from Doosan, South Korea, Sodium Oleate], the Clarity entry in data set [1] was “Clear solution”. Also, the Emulsion formation result in data set [2] is “slightly viscous emulsions”.
`C[C@@H](O[C@H]1OCCN(Cc2n[nH]c(=O)[nH]2)[C@H]1c1ccc(F)cc1)c1cc(C(F)(F)F)cc(C(F)(F)F)c1` [Aprepitant]: the oral bioavailability entry in data set [3] is listed as “about 69%”.
Take `CCCCCCCC/C=C\CCCCCCCC(=O)[O-].[Na+]` [Sodium Oleate from Loba Chemie, India, Sodium Oleate]: in data set [1], the Clarity result is listed as “Clear solution” and the “pH of 5.55 mg/mL solution” value turned out to be 10.78. Also, the Emulsion formation entry in data set [2] is listed as “Free flowing emulsion”. The Emulsion formation result in data set [2] (listed as oleate from Loba Chemie) is listed as “free-flowing emulsion”.

Values taken from patent publication US20240398706A1, “INJECTABLE FORMULATIONS OF APREPITANT” (Good Health, LLC, priority 2021, published 2024).
